Assay results published in US20240279302A1, “OLFACTORY RECEPTOR EXPRESSING METHOD AND RESPONSE MEASUREMENT METHOD” (Kao Corporation, priority 2021, published 2024).
Where two headings read alike, the source gives them in different places.

Assays:
Test in all cases: Luciferase assay, sulfur compounds
Assay type in all cases: cell-based
consensus OR2L13 = molecular target: T1, consensus OR2L13 (Homo sapiens, UniProt Q8N349, C217Y/C28L/D174N/F161Y/F208L/F25L/F309S/G145I/H228R/H49R/H6Q/I211L/I240C/I248T/I24L/L123V/L17F/L185P/R301T/S128P/S215A/T115A/T149I/T189M/Y130H/Y82F); details: in the presence of a copper ion
T1 construct: Flag (N); Rho tag (N); expressed in transfected cells; host or cells: HEK293
T1 sequence (Q8N349 1-312 H6Q/L17F/I24L/F25L/C28L/H49R/Y82F/T115A/L123V/S128P/Y130H/G145I/T149I/F161Y/D174N/L185P/T189M/F208L/I211L/S215A/C217Y/H228R/I240C/I248T/R301T/F309S): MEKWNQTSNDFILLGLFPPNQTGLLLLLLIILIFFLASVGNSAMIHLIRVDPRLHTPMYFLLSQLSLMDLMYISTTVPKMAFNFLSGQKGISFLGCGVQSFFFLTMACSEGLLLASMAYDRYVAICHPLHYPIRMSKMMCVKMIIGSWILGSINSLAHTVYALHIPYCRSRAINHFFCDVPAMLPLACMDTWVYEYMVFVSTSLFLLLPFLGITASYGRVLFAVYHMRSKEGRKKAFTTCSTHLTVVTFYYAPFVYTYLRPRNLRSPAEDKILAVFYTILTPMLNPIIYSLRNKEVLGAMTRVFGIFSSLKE
Protocol: (§1) A reaction solution as to each consensus olfactory receptor prepared in Examples described above was prepared according to the composition shown in Table 4, left standing for 20 minutes in a clean bench, and then added to each well of a 96-well plate (Becton, Dickinson and Company). The original olfactory receptor was used as to OR4S2. Composition shown in Table 20 was used as to OR11H2 and OR4E2. Subsequently, 100 μL of HEK293 cells suspended in DMEM (Nacalai Tesque, Inc.) was inoculated at 2×10^5 cells/cm^2 to each well, and cultured for 24 hours in an incubator kept at 37° C. and 5% CO2. Cells expressing no olfactory receptor (Mock) were provided as a control.
(§2) The medium was removed from the cultures prepared in 1), and 75 μL of a test substance solution (methyl mercaptan (MeSH) (CAS: 74-93-1, Tokyo Chemical Industry Co., Ltd.), dimethyl sulfide (DMS) (CAS: 75-18-3, FUJIFILM Wako Pure Chemical Corp.), dimethyl disulfide (DMDS) (CAS: 624-92-0, Tokyo Chemical Industry Co., Ltd.), concentration range: 0 μM, 1 μM, 3 μM, 10 μM, 30 μM, 100 μM, and 300 μM, or dimethyl trisulfide (DMTS) (CAS: 3658-80-8, Tokyo Chemical Industry Co., Ltd.), concentration range: 0 μM, 0.1 μM, 0.3 μM, 1 μM, 3 μM, 10 μM, and 30 μM) prepared with a fresh medium was added thereto. Under a copper ion addition condition, the test substance solution was adjusted to contain 30 μM copper(II) chloride (FUJIFILM Wako Pure Chemical Corp.) in addition to the odorant. The cells were cultured for 4 hours in a CO2 incubator and the luciferase gene was expressed sufficiently in the cells. Luciferase activity was measured using Dual-Glo™ luciferase assay system (Promega Corp.) in accordance with the operation manual of the product. A luminescence value derived from firefly luciferase induced by test substance stimulation in each well of the 96-well plate was divided by a luminescence value derived from Renilla luciferase to calculate a value (fluc/hRluc) as a signal, which was then used in analysis. The signal under each transfection condition was normalized with the signal value (fluc/hRluc) under an odorant stimulation-free condition defined as 0% and the signal value (fluc/hRluc) by stimulation with 10 μM forskolin defined as 100%, and used as a response (%) in analysis.

[1] = molecular target: T2, OR4S2 (original olfactory receptor) (Homo sapiens, UniProt Q8NH73); details: for dose dependence of the response of OR4S2 / response of OR4S2: in the presence of a copper ion
T2 construct: expressed in transfected cells; host or cells: HEK293
T2 sequence (Q8NH73 1-311): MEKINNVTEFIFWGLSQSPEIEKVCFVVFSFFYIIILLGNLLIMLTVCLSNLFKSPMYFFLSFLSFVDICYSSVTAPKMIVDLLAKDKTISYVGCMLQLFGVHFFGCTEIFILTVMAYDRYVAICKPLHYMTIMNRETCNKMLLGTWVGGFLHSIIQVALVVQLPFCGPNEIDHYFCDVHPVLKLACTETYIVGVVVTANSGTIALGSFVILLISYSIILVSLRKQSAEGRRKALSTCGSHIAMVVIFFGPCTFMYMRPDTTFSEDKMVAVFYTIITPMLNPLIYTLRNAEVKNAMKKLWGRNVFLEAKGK
Protocol: as §1, §2

consensus OR2T11 = molecular target: T3, consensus OR2T11 (Homo sapiens, UniProt Q8NH01)
T3 construct: fused on or other part: N-terminal Flag-Rho tag from the pME18S vector
T3 sequence (Q8NH01 whole entry, looked up, the tested form may be a part): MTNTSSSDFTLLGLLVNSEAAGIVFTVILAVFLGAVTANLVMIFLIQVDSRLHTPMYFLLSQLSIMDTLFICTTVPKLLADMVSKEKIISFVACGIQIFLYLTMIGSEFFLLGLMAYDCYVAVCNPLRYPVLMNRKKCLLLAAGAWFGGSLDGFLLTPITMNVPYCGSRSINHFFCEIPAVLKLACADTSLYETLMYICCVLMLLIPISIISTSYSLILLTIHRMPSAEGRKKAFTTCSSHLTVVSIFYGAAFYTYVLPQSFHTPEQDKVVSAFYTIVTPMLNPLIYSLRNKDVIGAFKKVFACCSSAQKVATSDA
Protocol: as §1, §2

consensus OR2T4 = molecular target: T4, consensus OR2T4 (Homo sapiens, UniProt Q8NH00, A104M/A342V/C83S/E340G/F135L/G202R/G259R/I245V/L252F/L277M/L47V/N218K/R201C/S177A/T338N/V244T/V317L)
T4 construct: expressed in transfected cells; host or cells: HEK293
T4 sequence (Q8NH00 with tags, fused parts or gaps L47V/C83S/A104M/F135L/S177A/R201C/G202R/N218K/V244T/I245V/L252F/G259R/L277M/V317L/T338N/E340G/A342V): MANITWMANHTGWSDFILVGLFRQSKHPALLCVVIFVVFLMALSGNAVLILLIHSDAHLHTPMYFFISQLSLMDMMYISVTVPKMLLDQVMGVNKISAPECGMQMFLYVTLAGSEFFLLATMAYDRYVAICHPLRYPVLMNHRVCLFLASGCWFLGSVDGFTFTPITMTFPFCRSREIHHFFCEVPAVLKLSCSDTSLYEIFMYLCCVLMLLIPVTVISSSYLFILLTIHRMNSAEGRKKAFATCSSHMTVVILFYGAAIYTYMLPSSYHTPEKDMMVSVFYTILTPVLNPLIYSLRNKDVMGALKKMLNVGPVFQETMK
Protocol: as §1, §2

consensus OR2T1 = molecular target: T5, consensus OR2T1 (Homo sapiens, UniProt O43869, C277R/D138G/I77L/L118F/L265I/L324F/N134D/Q276H/S299T)
T5 construct: expressed in transfected cells; host or cells: HEK293
T5 sequence (O43869 52-369 I77L/L118F/N134D/D138G/L265I/Q276H/C277R/S299T/L324F): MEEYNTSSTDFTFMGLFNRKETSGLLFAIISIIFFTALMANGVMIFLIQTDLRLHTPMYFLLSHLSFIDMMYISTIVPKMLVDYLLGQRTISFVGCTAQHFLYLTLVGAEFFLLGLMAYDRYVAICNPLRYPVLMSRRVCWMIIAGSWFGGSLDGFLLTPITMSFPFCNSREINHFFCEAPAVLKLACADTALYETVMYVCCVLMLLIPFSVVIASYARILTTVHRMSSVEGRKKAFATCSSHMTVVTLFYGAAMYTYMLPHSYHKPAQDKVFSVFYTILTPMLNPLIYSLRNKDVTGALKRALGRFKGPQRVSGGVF
Protocol: as §1, §2

[2] = in the presence of a copper ion
[3] = read-out: EC50(μM) with 30 μM CuCl2; consensus OR2T11; 30 μM CuCl2

Compound	response of consensus OR2L13 (consensus OR2L13)	EC50 [1] [µM]	dose dependence of the response of OR4S2 [1]	response of OR4S2 [1]	dose dependence of the response of consensus OR2T11 (consensus OR2T11; [2])	response of consensus OR2T11 (consensus OR2T11; [2])	EC50 (consensus OR2T11; [3]) [µM]	response of consensus OR2T4 (consensus OR2T4; [2])	response of consensus OR2T1 (consensus OR2T1; [2])	EC50 ([1]; OR4S2 (original), 30 μM CuCl2, read-out: EC50(μM) with 30 μM CuCl2) [µM]	EC50 (consensus OR2T11; consensus OR2T11; 30 μM CuCl2; read-out: EC50(μM) with 30 μM CuCl2) [µM]	EC50 (consensus OR2T4) [µM]	dose dependence of the response of consensus OR2T4 (consensus OR2T4; [2])	EC50 (consensus OR2T1) [µM]	dose dependence of the response of consensus OR2T1 (consensus OR2T1; [2])
CSSC [dimethyl disulfide]	responded	530	dose-dependent response	responded	dose-dependent response	responded	246	responded	responded						
CSSSC [dimethyl trisulfide]	responded		dose-dependent response	responded	dose-dependent response	responded		responded	responded	28	26				
CS [methyl mercaptan]	responded			responded	dose-dependent response	responded	5	responded	responded			340	dose-dependent response	33	dose-dependent response
